# Experimental data: ChEMBL document CHEMBL4813985, “Lead optimization generates selenium-containing miconazole CYP51 inhibitors with improved pharmacological profile for the treatment of fungal infections” (Eur J Med Chem, 2021)
# The source made the active and inactive calls. The rule behind the calls is not given here.
# Experiments:
# [1] = target: T1, Lanosterol 14-alpha demethylase (Candida albicans (strain SC5314 / ATCC MYA-2876) (Yeast), UniProt P10613); assay: Inhibition of CYP51 in Candida albicans ATCC SC5314 assessed as Obtusifoliol level at 0.03125 ug/ml after 16 hrs by GC-MS analysis (reference value: 0%); parameters: scale not given: the % may be the effect or the level left; conditions: candida albicans sc5314, 16 h, at 0.03125 µg/mL
# T1 sequence (P10613 whole entry): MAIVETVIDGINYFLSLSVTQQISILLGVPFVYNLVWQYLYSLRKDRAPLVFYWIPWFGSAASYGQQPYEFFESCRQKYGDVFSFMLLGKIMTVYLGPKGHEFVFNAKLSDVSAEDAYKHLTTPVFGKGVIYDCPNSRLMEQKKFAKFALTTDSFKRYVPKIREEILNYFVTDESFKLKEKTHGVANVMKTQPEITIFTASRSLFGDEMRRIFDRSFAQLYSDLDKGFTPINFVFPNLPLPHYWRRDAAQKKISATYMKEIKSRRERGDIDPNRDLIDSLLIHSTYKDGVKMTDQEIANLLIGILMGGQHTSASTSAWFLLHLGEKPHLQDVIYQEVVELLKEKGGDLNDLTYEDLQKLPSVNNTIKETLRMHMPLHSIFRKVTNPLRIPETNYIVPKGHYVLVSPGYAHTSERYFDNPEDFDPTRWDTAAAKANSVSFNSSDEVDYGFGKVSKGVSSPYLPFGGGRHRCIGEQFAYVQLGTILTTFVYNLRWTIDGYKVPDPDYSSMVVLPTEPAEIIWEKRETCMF
# [2] = target: T1, Lanosterol 14-alpha demethylase; assay: Inhibition of CYP51 in Candida albicans ATCC SC5314 assessed as ergosterol level at 0.03125 ug/ml after 16 hrs by GC-MS analysis (reference value: 98.3%); parameters: scale not given: the % may be the effect or the level left; conditions: candida albicans sc5314, 16 h, at 0.03125 µg/mL
# [3] = target: T1, Lanosterol 14-alpha demethylase; assay: Inhibition of CYP51 in Candida albicans ATCC SC5314 assessed as lanosterol level at 8 ug/ml after 16 hrs by GC-MS analysis (reference value: 1.7%); parameters: scale not given: the % may be the effect or the level left; conditions: candida albicans sc5314, 16 h, at 8 µg/mL
# Aspergillus fumigatus = assay: Antifungal activity against Aspergillus fumigatus CMGCC3.7795 measured after 72 hrs by broth microdilution assay; type: functional
# [4] = target: T1, Lanosterol 14-alpha demethylase; assay: Inhibition of CYP51 in Candida albicans ATCC SC5314 assessed as lanosterol level at 0.5 ug/ml after 16 hrs by GC-MS analysis (reference value: 1.7%); parameters: scale not given: the % may be the effect or the level left; conditions: candida albicans sc5314, 16 h, at 0.5 µg/mL
# Candida albicans [5] = assay: Antifungal activity against Candida albicans CPCC400616 measured after 24 hrs by broth microdilution assay; type: functional
# [6] = target: T1, Lanosterol 14-alpha demethylase; assay: Inhibition of CYP51 in Candida albicans ATCC SC5314 assessed as Eburicol level at 0.5 ug/ml after 16 hrs by GC-MS analysis (reference value: 0%); parameters: scale not given: the % may be the effect or the level left; conditions: candida albicans sc5314, 16 h, at 0.5 µg/mL
# [7] = target: T1, Lanosterol 14-alpha demethylase; assay: Inhibition of CYP51 in Candida albicans ATCC SC5314 assessed as Eburicol level at 8 ug/ml after 16 hrs by GC-MS analysis (reference value: 0%); parameters: scale not given: the % may be the effect or the level left; conditions: candida albicans sc5314, 16 h, at 8 µg/mL
# [Candida] zeylanoides = Antifungal activity against Candida zeylanoides CMGCC2.3739 measured after 24 hrs by broth microdilution assay; type: functional; conditions: Dujonia zeylanoides
# Candida albicans [8] = assay: Antifungal activity against fluconazole-resistant Candida albicans 901 assessed as inhibition of microbial growth after 24 hrs by broth microdilution method; type: functional
# Candida albicans [9] = assay: Anti-biofilm activity in Candida albicans CPCC400616 assessed as inhibition of biofilm formation incubated for 24 hrs with 24 hrs precultured fungal suspension by XTT assay; type: functional
# Cryptococcus neoformans = assay: Antifungal activity against Cryptococcus neoformans CMGCC2.3161 measured after 72 hrs by broth microdilution assay; type: functional
# [10] = target: T1, Lanosterol 14-alpha demethylase; assay: Inhibition of CYP51 in Candida albicans ATCC SC5314 assessed as ergosterol level at 0.5 ug/ml after 16 hrs by GC-MS analysis (reference value: 98.3%); parameters: scale not given: the % may be the effect or the level left; conditions: candida albicans sc5314, 16 h, at 0.5 µg/mL
# Pichia kudriavzevii = assay: Antifungal activity against Candida krusei AS2.1045 measured after 24 hrs by broth microdilution assay; type: functional
# Candida albicans [11] = assay: Antifungal activity against fluconazole-resistant Candida albicans 17# assessed as inhibition of microbial growth after 24 hrs by broth microdilution method; type: functional
# [12] = target: T1, Lanosterol 14-alpha demethylase; assay: Inhibition of CYP51 in Candida albicans ATCC SC5314 assessed as Obtusifoliol level at 0.5 ug/ml after 16 hrs by GC-MS analysis (reference value: 0%); parameters: scale not given: the % may be the effect or the level left; conditions: candida albicans sc5314, 16 h, at 0.5 µg/mL
# [13] = target: T1, Lanosterol 14-alpha demethylase; assay: Inhibition of CYP51 in Candida albicans ATCC SC5314 assessed as Obtusifoliol level at 2 ug/ml after 16 hrs by GC-MS analysis (reference value: 0%); parameters: scale not given: the % may be the effect or the level left; conditions: candida albicans sc5314, 16 h, at 2 µg/mL
# Candida parapsilosis = assay: Antifungal activity against Candida parapsilosis ATCC 22019 measured after 24 hrs by broth microdilution assay; type: functional; conditions: Lodderomyces parapsilosis
# [14] = target: T1, Lanosterol 14-alpha demethylase; assay: Inhibition of CYP51 in Candida albicans ATCC SC5314 assessed as lanosterol level at […] ug/ml after 16 hrs by GC-MS analysis (reference value: 1.7%); parameters: scale not given: the % may be the effect or the level left; conditions: candida albicans sc5314, 16 h, dose 0.125 µg/ml
# [15] = target: T1, Lanosterol 14-alpha demethylase; assay: Inhibition of CYP51 in Candida albicans ATCC SC5314 assessed as Eburicol level at 2 ug/ml after 16 hrs by GC-MS analysis (reference value: 0%); parameters: scale not given: the % may be the effect or the level left; conditions: candida albicans sc5314, 16 h, at 2 µg/mL
# [16] = target: T1, Lanosterol 14-alpha demethylase; assay: Inhibition of CYP51 in Candida albicans ATCC SC5314 assessed as Obtusifoliol level at […] ug/ml after 16 hrs by GC-MS analysis (reference value: 0%); parameters: scale not given: the % may be the effect or the level left; conditions: candida albicans sc5314, 16 h, dose 0.125 µg/ml
# Candida albicans [17] = assay: Antifungal activity against fluconazole-resistant Candida albicans CaR assessed as inhibition of microbial growth after 24 hrs by broth microdilution method; type: functional
# [18] = target: T1, Lanosterol 14-alpha demethylase; assay: Inhibition of CYP51 in Candida albicans ATCC SC5314 assessed as lanosterol level at 0.03125 ug/ml after 16 hrs by GC-MS analysis (reference value: 1.7%); parameters: scale not given: the % may be the effect or the level left; conditions: candida albicans sc5314, 16 h, at 0.03125 µg/mL
# [19] = target: T1, Lanosterol 14-alpha demethylase; assay: Inhibition of CYP51 in Candida albicans ATCC SC5314 assessed as Obtusifoliol level at 8 ug/ml after 16 hrs by GC-MS analysis (reference value: 0%); parameters: scale not given: the % may be the effect or the level left; conditions: candida albicans sc5314, 16 h, at 8 µg/mL
# [20] = target: T1, Lanosterol 14-alpha demethylase; assay: Inhibition of CYP51 in Candida albicans ATCC SC5314 assessed as lanosterol level at 2 ug/ml after 16 hrs by GC-MS analysis (reference value: 1.7%); parameters: scale not given: the % may be the effect or the level left; conditions: candida albicans sc5314, 16 h, at 2 µg/mL
# [21] = target: T1, Lanosterol 14-alpha demethylase; assay: Inhibition of CYP51 in Candida albicans ATCC SC5314 assessed as Eburicol level at […] ug/ml after 16 hrs by GC-MS analysis (reference value: 0%); parameters: scale not given: the % may be the effect or the level left; conditions: candida albicans sc5314, 16 h, dose 0.125 µg/ml
# Nakaseomyces glabratus = assay: Antifungal activity against Candida glabrata measured after 24 hrs by broth microdilution assay; type: functional
# [22] = target: T1, Lanosterol 14-alpha demethylase; assay: Inhibition of CYP51 in Candida albicans ATCC SC5314 assessed as ergosterol level at 8 ug/ml after 16 hrs by GC-MS analysis (reference value: 98.3%); parameters: scale not given: the % may be the effect or the level left; conditions: candida albicans sc5314, 16 h, at 8 µg/mL
# Candida albicans [23] = assay: Antifungal activity against Candida albicans ATCC SC5314 infected in mouse model of candidiasis assessed as reduction in kidney fungal burden at 0.6 mg/kg/day, ip dosed at 2 hrs post infection and dosed for 4 days; type: functional, organism-based; conditions: time 4.0 day
# Candida albicans [24] = assay: Antifungal activity against fluconazole-resistant Candida albicans 904 assessed as inhibition of microbial growth after 24 hrs by broth microdilution method; type: functional
# [25] = target: T1, Lanosterol 14-alpha demethylase; assay: Inhibition of CYP51 in Candida albicans ATCC SC5314 assessed as Eburicol level at 0.03125 ug/ml after 16 hrs by GC-MS analysis (reference value: 0%); parameters: scale not given: the % may be the effect or the level left; conditions: candida albicans sc5314, 16 h, at 0.03125 µg/mL
# Candida albicans [26] = assay: Antifungal activity against fluconazole-resistant Candida albicans 632 assessed as inhibition of microbial growth after 24 hrs by broth microdilution method; type: functional
# Candida albicans [27] = assay: Antifungal activity against Candida albicans ATCC SC5314 measured after 24 hrs by broth microdilution assay; type: functional
# [28] = target: T1, Lanosterol 14-alpha demethylase; assay: Inhibition of CYP51 in Candida albicans ATCC SC5314 assessed as ergosterol level at […] ug/ml after 16 hrs by GC-MS analysis (reference value: 98.3%); parameters: scale not given: the % may be the effect or the level left; conditions: candida albicans sc5314, 16 h, dose 0.125 µg/ml
# [29] = target: T1, Lanosterol 14-alpha demethylase; assay: Inhibition of CYP51 in Candida albicans ATCC SC5314 assessed as ergosterol level at 2 ug/ml after 16 hrs by GC-MS analysis (reference value: 98.3%); parameters: scale not given: the % may be the effect or the level left; conditions: candida albicans sc5314, 16 h, at 2 µg/mL
smiles,measurement,setting,value
OC(Cn1cncn1)(Cn1cncn1)c1ccc(F)cc1F [FLUCONAZOLE],Activity,[1],1%
same,Activity,[2],86.34%
same,Activity,[3],14.1%
same,MIC,Aspergillus fumigatus,> 128 µg/mL
same,Activity,[4],11.6%
same,MIC,Candida albicans [5],4 µg/mL
same,Activity,[6],6.7%
same,Activity,[7],70.3%
same,MIC,[Candida] zeylanoides,4 µg/mL
same,MIC,Candida albicans [8],> 128 µg/mL
same,MIC,Candida albicans [9],> 1020 µg/mL
same,MIC,Cryptococcus neoformans,4 µg/mL
same,Activity,[10],78.9%
same,MIC,Pichia kudriavzevii,32 µg/mL
same,MIC,Candida albicans [11],128 µg/mL
same,Activity,[12],2.9%
same,Activity,[13],9.5%
same,MIC,Candida parapsilosis,4 µg/mL
same,Activity,[14],12.4%
same,Activity,[15],63.5%
same,Activity,[16],1.6%
same,MIC,Candida albicans [17],> 128 µg/mL
same,Activity,[18],9.8%
same,Activity,[19],11.4%
same,Activity,[20],7.2%
same,Activity,[21],5.3%
same,MIC,Nakaseomyces glabratus,32 µg/mL
same,Activity,[22],4.2%
same,Activity,Candida albicans [23],Active
same,MIC,Candida albicans [24],> 128 µg/mL
same,Activity,[25],2.9%
same,MIC,Candida albicans [26],> 128 µg/mL
same,MIC,Candida albicans [27],1 µg/mL
same,Activity,[28],80.8%
same,Activity,[29],19.8%
